US20240209028A1, “CNP COMPOUNDS” (priority 2022, published 2024)
Where two headings read alike, the source gives them in different places. Starred links: 1 amine or outer side, 2 acyl side, 3 side chain; linkers in the order of their positions; H or OH if unused. Positions of bridges follow the written chain, without caps; N, C: chain ends. Residues, ends and D or L forms follow the SMILES beside them. *: point of attachment. C18 diacid = O=C(O)CCCCCCCCCCCCCCCCC(=O)*; γGlu = O=C(O)[C@H](CCC(=O)[*:2])N[*:1]; AEEA = NCCOCCOCC(=O)O

Experiments:
[1] = PK after i.v. and s.c. administration to Göttingen minipig; details: female, in vivo, Göttingen Minipig
Method in brief: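 Female Göttingen minipigs (6-12 months, ~22 kg) and domestic LYD pigs (4-5 months, ~80 kg) given CNP compounds i.v. (30-60 or 15-43 nmol/kg) or s.c. neck (55-62 or 20-30 nmol/kg) via catheter/pen. EDTA plasma sampled up to 14 days, CNP and cGMP by LC-MS; non-compartmental PK, F from dose-normalized AUC s.c./i.v.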

[2] = Local tolerance of CNP compounds in rats (s.c. injection, histopathology); format: in vivo, Sprague Dawley rat; details: for local subcutaneous necrosis: 5 days after subcutaneous injections in the rat; for assessment for human subcutaneous administration: based on rat local tolerance
Description: The purpose of this study was to evaluate the local tissue reaction to subcutaneous injection of CNP compounds in rats.
Procedure: The CNP compounds were formulated according to the principles described in General Methods of Preparation-Method G. Each Sprague Dawley rat (male, 10-11 weeks of age at arrival, Janvier, France) was dosed s.c. with 250 or 350 uL of the same compound (formulation concentration of 1000 nmol/mL) 120 h prior to tissue collection resulting in a total of two injections for each animal (Table 15). Injection site (flank or neck) was alternated across animals within each group and time point.
Animals had access to tap water and food (Altromin 1324) ad libitum. Group size was n=3 for vehicles and positive control, and n=4 for test compounds. Vehicles and compounds were formulated in either 5 mM sodium acetate, 250 mM glycerol, pH 4.0 or 8 mM sodium phosphate, 250 mM glycerol, pH 7.4 as shown in Table 16.
The animals were anesthetized with isoflurane. Via an electric shaving machine, a squared area of fur (2 cm×2 cm) was removed either from the rats' neck or flank area). For dosing, a new injection needle (25G canula, 1 ml syringe) was placed in the middle of the square border closest to the animal's head and the needle was inserted into the skin from the border towards the center of the square. […] On the day of tissue collection, the rats were deeply anaesthetized with isoflurane and euthanized by exsanguination. The injection sites were inspected and scored with regards to pathological lesions. The injection sites were evaluated, and any changes were noted (location, colour, shape and size), and sampled for histology preparation.
The injection sites were removed and fixed in 4% phosphate buffered neutral formaldehyde in sealed plastic containers.
Each injection site was subsequently cut into three sections 0.8 cm, 1.0 cm and 1.2 cm from the square border where the injection needle was placed, and, respectively, these sections represented the injection sites and the adjacent tissue. The tissue was processed, embedded in paraffin and cut in 2-4 μm thin sections, stained with the haematoxylin and eosin (H&E), and evaluated microscopically with a light microscope. Histopathological changes were graded on a 5-level scale (Minimal (Min), Mild (Mil), Moderate (Mod), Marked (Mar) and Severe (Sev)).

mouse metatarsal bones = test: Mouse metatarsal bone dissection and culture (ex vivo bone growth); format: cell-based, mouse (NMRI); details: 100 nM, n=8
Description: The purpose of this study was to evaluate bone growth after administration of CNP compounds in an ex vivo mouse model.
Procedure: One-day old mouse pups (NMRI, Javier Labs France) were euthanised prior to dissection. All applicable international and internal Novo Nordisk guidelines for care and use of animals were followed. The three middle metatarsal bones were dissected out from each hind paw. The dissected bones were placed in 24-well cell culture plates and cultured in 400 μl a-Minimum Essential Media supplemented with 0.2% BSA, 1% Pen/Strep at 37° C. and 5% CO2. The bones from all animals were randomised into a control group and six CNP compound-treated groups (100 nM; n=8). The medium was changed every 2-3 days. All compounds were formulated according to the principles described in General Methods of Preparation—Method G. Compounds 9435 and 9483 were formulated in A) 5 mM sodium acetate, 250 mM glycerol, pH 4.0 while compounds 9384, 9407, 9480 and 9482 were formulated in B) 8 mM sodium phosphate, 250 mM glycerol, pH 7.4.
Digital pictures were captured on day 0, 4, 7, 11, and 14 using a digital camera attached to a Nikon microscope. The length of each metatarsal bone was measured using ImageJ software and increase in bone length was expressed as percentage change from the length measured at the day of dissection (Mean (SD)).
In Table 27, metatarsal bones were isolated from mice and cultured for up to 14 days. Length was measured every 3-4 days throughout the study and expressed as percentage change from day 0 (Mean (SD)). Statistically significant differences are indicated compared to control group (two-way ANOVA).

Row | Structure (SMILES) | local subcutaneous necrosis [2] | assessment for human subcutaneous administration [2] | Increase in bone length, mean (%) change from day 0 (mouse metatarsal bones; day 4 in culture) [%] | Increase in bone length, mean (%) change from day 0 (mouse metatarsal bones; day 7 in culture) [%] | Increase in bone length, mean (%) change from day 0 (mouse metatarsal bones; day 11 in culture) [%] | Increase in bone length, mean (%) change from day 0 (mouse metatarsal bones; day 14 in culture) [%] | further results
1 | CC[C@H](C)[C@@H]1NC(=O)[C@H](CCCNC(=N)N)NC(=O)[C@H](CC(=O)O)NC(=O)[C@H](CC(C)C)NC(=O)[C@@H]2CCCN2C(=O)[C@H](CC(C)C)NC(=O)CNC(=O)[C@H](Cc2ccccc2)NC(=O)[C@@H](NC(=O)CNC(=O)[C@H](CCC(N)=O)NC(=O)[C@H](CO)NC(=O)[C@H](CC(C)C)NC(=O)CNC(=O)[C@H](CCCCN)NC(=O)[C@H](CCCCN)NC(=O)[C@H](CCC(N)=O)NC(=O)[C@H](C)NC(=O)CNC(=O)[C@H](CCCCN)NC(=O)[C@H](Cc2ccc(O)cc2)NC(=O)[C@H](CCCCN)NC(=O)[C@H](CCCNC(=N)N)NC(=O)[C@H](C)NC(=O)COCCOCCNC(=O)COCCOCCNC(=O)COCCOCCNC(=O)COCCOCCNC(=O)CC[C@H](NC(=O)CC[C@H](NC(=O)CC[C@H](NC(=O)CC[C@H](NC(=O)CC[C@H](NC(=O)CCCCCCCCCCCCCCCCC(=O)O)C(=O)O)C(=O)O)C(=O)O)C(=O)O)C(=O)O)CSSC[C@@H](C(=O)O)NC(=O)CNC(=O)[C@H](CC(C)C)NC(=O)CNC(=O)[C@H](CO)NC(=O)[C@H](CC(C)C)NC(=O)[C@H](CO)NC(=O)CNC1=O [Compound 9407] ({C18 diacid-γGlu-γGlu-γGlu-γGlu-γGlu-AEEA-AEEA-AEEA-AEEA}-ARKYKGAQKKGLSQGCFGLPLDRIGSLSGLGC-OH; disulfide 16-32) |  |  |  |  |  |  | clearance ([1]; iv, i.v., read-out: CL (ml/hr/kg), Intravenous PK (converted)): 1.2 mL/h/kg; half-life ([1]; iv, i.v., read-out: T½, iv (converted)): 82 h; bioavailability ([1]; sc, s.c. bioavailability, read-out: F (%), Subcutaneous PK): 86%; half-life ([1]; sc, s.c., read-out: T½, sc (converted)): 92 h; Number of injections by severity of necrosis: NAD (No Abnormalities Detected) ([2]; rat, s.c. 350 μl, about 1000 nmol/ml, 5 days post injection): 4
2 | CC[C@H](C)[C@@H]1NC(=O)[C@H](CCCNC(=N)N)NC(=O)[C@H](CC(=O)O)NC(=O)[C@H](CC(C)C)NC(=O)[C@@H]2CCCN2C(=O)[C@H](CC(C)C)NC(=O)CNC(=O)[C@H](Cc2ccccc2)NC(=O)[C@@H](NC(=O)CNC(=O)[C@H](CO)NC(=O)[C@H](CO)NC(=O)[C@@H](NC(=O)CNC(=O)[C@@H](NC(=O)[C@H](Cc2c[nH]cn2)NC(=O)[C@H](CCC(N)=O)NC(=O)[C@H](C)NC(=O)CNC(=O)[C@H](Cc2c[nH]cn2)NC(=O)[C@H](Cc2ccc(O)cc2)NC(=O)[C@H](CCCCN)NC(=O)[C@H](CCCNC(=N)N)NC(=O)[C@H](C)NC(=O)COCCOCCNC(=O)COCCOCCNC(=O)CC[C@H](NC(=O)CCCCCCCCCCCCCCCCC(=O)O)C(=O)O)[C@@H](C)O)C(C)C)CSSC[C@@H](C(=O)O)NC(=O)CNC(=O)[C@H](CC(C)C)NC(=O)CNC(=O)[C@H](CO)NC(=O)[C@H](CC(C)C)NC(=O)[C@H](CO)NC(=O)CNC1=O [compound 1351] ({C18 diacid-γGlu-AEEA-AEEA}-ARKYHGAQHTGVSSGCFGLPLDRIGSLSGLGC-OH; disulfide 16-32) | no or mild | acceptable |  |  |  |  | 
3 | CC[C@H](C)[C@@H]1NC(=O)[C@H](CCCNC(=N)N)NC(=O)[C@H](CC(=O)O)NC(=O)[C@H](CC(C)C)NC(=O)[C@@H]2CCCN2C(=O)[C@H](CC(C)C)NC(=O)CNC(=O)[C@H](Cc2ccccc2)NC(=O)[C@@H](NC(=O)CNC(=O)[C@H](CCCCN)NC(=O)[C@H](CO)NC(=O)[C@@H](NC(=O)CNC(=O)[C@@H](NC(=O)[C@H](Cc2c[nH]cn2)NC(=O)[C@H](CCC(N)=O)NC(=O)[C@H](C)NC(=O)CNC(=O)[C@H](Cc2c[nH]cn2)NC(=O)[C@H](Cc2ccc(O)cc2)NC(=O)[C@H](CCCCN)NC(=O)[C@H](CCCNC(=N)N)NC(=O)[C@H](C)NC(=O)COCCOCCNC(=O)COCCOCCNC(=O)CC[C@H](NC(=O)CC[C@H](NC(=O)CC[C@H](NC(=O)CCCCCCCCCCCCCCCCC(=O)O)C(=O)O)C(=O)O)C(=O)O)[C@@H](C)O)C(C)C)CSSC[C@@H](C(=O)O)NC(=O)CNC(=O)[C@H](CC(C)C)NC(=O)CNC(=O)[C@H](CO)NC(=O)[C@H](CC(C)C)NC(=O)[C@H](CO)NC(=O)CNC1=O [compound 1420] ({C18 diacid-γGlu-γGlu-γGlu-AEEA-AEEA}-ARKYHGAQHTGVSKGCFGLPLDRIGSLSGLGC-OH; disulfide 16-32) | no or mild | acceptable |  |  |  |  | 
4 | CC[C@H](C)[C@@H]1NC(=O)[C@H](CCCNC(=N)N)NC(=O)[C@H](CC(=O)O)NC(=O)[C@H](CC(C)C)NC(=O)[C@@H]2CCCN2C(=O)[C@H](CC(C)C)NC(=O)CNC(=O)[C@H](Cc2ccccc2)NC(=O)[C@@H](NC(=O)CNC(=O)[C@H](CO)NC(=O)[C@H](CO)NC(=O)[C@H](CC(C)C)NC(=O)CNC(=O)[C@H](CCCCN)NC(=O)[C@H](CCCCN)NC(=O)[C@H](CCC(N)=O)NC(=O)[C@H](C)NC(=O)CNC(=O)[C@H](CCCCN)NC(=O)[C@H](Cc2ccc(O)cc2)NC(=O)[C@H](CCCCN)NC(=O)[C@H](CCCNC(=N)N)NC(=O)[C@H](C)NC(=O)[C@H](CCC(N)=O)NC(=O)[C@@H]2CCCN2C(=O)[C@H](Cc2c[nH]cn2)NC(=O)[C@H](CCC(=O)O)NC(=O)[C@H](CCC(N)=O)NC(=O)CC[C@H](NC(=O)CC[C@H](NC(=O)CC[C@H](NC(=O)CC[C@H](NC(=O)CC[C@H](NC(=O)CCCCCCCCCCCCCCCCC(=O)O)C(=O)O)C(=O)O)C(=O)O)C(=O)O)C(=O)O)CSSC[C@@H](C(=O)O)NC(=O)CNC(=O)[C@H](CC(C)C)NC(=O)CNC(=O)[C@H](CO)NC(=O)[C@H](CC(C)C)NC(=O)[C@H](CO)NC(=O)CNC1=O [compound 9482] ({C18 diacid-γGlu-γGlu-γGlu-γGlu-γGlu}-QEHPQARKYKGAQKKGLSSGCFGLPLDRIGSLSGLGC-OH; disulfide 21-37) |  |  | 37.7 | 47.1 | 54.4 | 57.5 | 
5 | CC[C@H](C)[C@@H]1NC(=O)[C@H](CCCNC(=N)N)NC(=O)[C@H](CCC(=O)O)NC(=O)[C@H](CC(C)C)NC(=O)[C@@H]2CCCN2C(=O)[C@H](CC(C)C)NC(=O)CNC(=O)[C@H](Cc2ccccc2)NC(=O)[C@@H](NC(=O)CNC(=O)[C@H](CO)NC(=O)[C@H](CO)NC(=O)[C@H](CC(C)C)NC(=O)CNC(=O)[C@H](CCCCN)NC(=O)[C@H](CCCCN)NC(=O)[C@H](CCC(N)=O)NC(=O)[C@H](C)NC(=O)CNC(=O)[C@H](CCCCN)NC(=O)[C@H](Cc2ccc(O)cc2)NC(=O)[C@H](CCCCN)NC(=O)[C@H](CCCNC(=N)N)NC(=O)[C@H](C)NC(=O)[C@H](CCC(N)=O)NC(=O)[C@@H]2CCCN2C(=O)[C@H](Cc2c[nH]cn2)NC(=O)[C@H](CCC(=O)O)NC(=O)[C@H](CCC(N)=O)NC(=O)CC[C@H](NC(=O)CC[C@H](NC(=O)CC[C@H](NC(=O)CC[C@H](NC(=O)CCCCCCCCCCCCCCCCC(=O)O)C(=O)O)C(=O)O)C(=O)O)C(=O)O)CSSC[C@@H](C(=O)O)NC(=O)CNC(=O)[C@H](CC(C)C)NC(=O)CNC(=O)[C@H](CO)NC(=O)[C@H](CC(C)C)NC(=O)[C@H](CO)NC(=O)CNC1=O [compound 9483] ({C18 diacid-γGlu-γGlu-γGlu-γGlu}-QEHPQARKYKGAQKKGLSSGCFGLPLERIGSLSGLGC-OH; disulfide 21-37) |  |  | 30.2 | 39.5 | 49.7 | 51.5 | 
